Measurements as given in US20100119479A1, “THERAPEUTIC ANTIVIRAL PEPTIDES” (INTERMUNE, INC., priority 2008, published 2010).
pEC50, pIC50: −log10 of the molar value.

What was measured:
[1] = system: HCV sub-genomic replicon, GS4.3 (HuH-7 hepatoma cells); experiment: Quantitation by ELISA of NPTII in the HCV sub-genomic replicon, GS4.3; assay type: cell-based; conditions: Hepatitis C virus, GS4.3 replicon cells, 72 h incubation
Excerpt: Quantitation by ELISA of the Selectable Marker Protein, Neomycin Phosphotransferase II (NPTII) in the HCV Sub-Genomic Replicon, GS4.3
The HCV sub-genomic replicon (1377/NS3-3′, accession No. AJ242652), stably maintained in HuH-7 hepatoma cells, was created by Lohmann et al. Science 285: 110-113 (1999). The replicon-containing cell culture, designated GS4.3, was obtained from Dr. Christoph Seeger of the Institute for Cancer Research, Fox Chase Cancer Center, Philadelphia, Pa.
GS4.3 cells were maintained at 37° C., 5% CO2, in DMEM (Gibco 11965-092) supplemented with L-glutamine 200 mM (100×) (Gibco25030-081), non-essential amino acids (NEAA)(Biowhittaker 13-114E), heat-inactivated (HI) Fetal Bovine Serum(FBS)(Hyclone SH3007.03) and 750 μg/mL geneticin (G418)(Gibco 10131-035). Cells were sub-divided 1:3 or 4 every 2-3 days.
24 h prior to the assay, GS4.3 cells were collected, counted, and plated in 96-well plates (Costar 3585) at 7500 cells/well in […] standard maintenance medium (above) and incubated in the conditions above. To initiate the assay, culture medium was removed, cells were washed once with PBS (Gibco 10010-023) and 90 μl Assay Medium (DMEM, L-glutamine, NEAA, 10% HI FBS, no G418) was added. Inhibitors were made as a 10× stock in Assay Medium, (3-fold dilutions from 10 μM to […] final concentration, final DMSO concentration 1%), […] were added to duplicate wells, plates were rocked to mix, and incubated as above for 72 h.
An NPTII Elisa kit was obtained from AGDIA, Inc. (Compound direct ELISA test system for Neomycin Phosphotransferase II, PSP 73000/4800). Manufacturer's instructions were followed, with some modifications. 10×PEB-1 lysis buffer was made up to include 500 μM PMSF (Sigma P7626, 50 mM stock in isopropanol). After 72 h incubation, cells were washed once with PBS and […] PEB-1 with PMSF was added per well. Plates were agitated vigorously for 15 minutes, room temperature, then frozen at −70° C. Plates were thawed, lysates were mixed thoroughly, and 100 μl were applied to an NPTII Elisa plate. A standard curve was made. Lysate from DMSO-treated control cells was pooled, serially diluted with PEB-1 with PMSF, and applied to duplicate wells of the ELISA plate, in a range of initial lysate amount of 150 μL-2.5 μL. In addition, 100 μL buffer alone was applied in duplicate as a blank. Plates were sealed and gently agitated at room temperature for 2 h. Following capture incubation, the plates were washed 5×300 μL with PBS-T (0.5% Tween-20, PBS-T was supplied in the ELISA kit). For detection, a 1× dilution of enzyme conjugate diluent MRS-2 (5×) was made in PBS-T, into which 1:100 dilutions of enzyme conjugates A and B were added, as per instructions. Plates were resealed, and incubated with agitation, covered, room temperature, for 2 h. The washing was then repeated and 100 μL, of room temperature TMB substrate was added. After approximately 30 minutes incubation (room temperature, agitation, covered), the reaction was stopped with 50 μL, 3M sulfuric acid. Plates were read at 450 nm on a Molecular Devices Versamax plate reader.
Inhibitor effect was expressed as a percentage of DMSO-treated control signal, and inhibition curves were calculated using a 4-parameter equation: y=A+((B−A)/(1+((C/x)̂D))), where C is half-maximal activity or EC50.

[2] = biological target: T1, full-length NS3/NS4A-2 (HCV NS3 protease) (Hepatitis C virus genotype 1b, UniProt Q9WMX2); experiment: NS3 Inhibition Assay (NS3-NS4 protease assay, RETS1 substrate); assay type: biochemical; conditions: NS3/NS4A-2 protease
T1 construct: Recombinant E. coli or Baculovirus full-length NS3; host or cells: E. coli or baculovirus (BV) expression
Procedure: NS3 Complex Formation with NS4A-2.
Recombinant E. coli or Baculovirus full-length NS3 was diluted to 3.33 μM with assay buffer and transferred material to an eppendorf tube and placed in a water bath in a 4° C. refrigerator. The appropriate amount of NS4A-2 diluted to […] in assay buffer was added to equal the volume of NS3 above (conversion factor—3.8 mg/272 μL assay buffer). The material was transferred to an eppendorf tube and placed in water bath in a 4° C. refrigerator.
After equilibration to 4° C., equal volumes of NS3 and NS4A-2 solutions were combined in an eppendorf tube, mix gently with a manual pipettor, and incubate mixture for 15 minutes in the 4° C. water bath. Final concentrations in the mixture are 1.67 μM NS3, 4.15 mM NS4A-2 (2485-fold molar excess NS4A-2).
After 15 minutes at 4° C., the NS3/NS4A-2 eppendorf tube was removed and place it in a room temperature water bath for 10 minutes. NS3/NS4A-2 was aliquoted at appropriate volumes and store at −80° C. (E. coli NS3 run at 2 nM in assay, aliquot at 25 μL. BV NS3 run at 3 nM in assay, aliquot at 30 μL).
Step a. Sample compounds were dissolved to 10 mM in DMSO then diluted to 2.5 mM (1:4) in DMSO. Typically, compounds were added to an assay plate at 2.5 mM concentration, yielding upon dilution a starting concentration of 50 microM in the assay inhibition curve. Compounds were serial diluted in assay buffer to provide test solutions at lower concentrations.
Step b. The E. coli. NS3/NS4A-2 was diluted to 4 nM NS3 (1:417.5 of 1.67 μM stock−18 μL1.67 μM stock+7497 μL assay buffer). The BV NS3/NS4A-2 was diluted to 6 nM NS3 (1:278.3 of 1.67 μM stock−24 μL1.67 μM stock+6655 μL assay buffer).
Step c. Using the manual multichannel pipettor, and being careful not to introduce bubbles into the plate, 50 μL assay buffer were added to wells A01-H01 of a black Costar 96-well polypropylene storage plate.
Step d. Using the manual multichannel pipettor, and being careful not to introduce bubbles into the plate, 50 μL of diluted NS3/NS4A-2 from Step b were added to wells A02-H12 of the plate in Step c.
Step e. Using the manual multichannel pipettor, and being careful not to introduce bubbles into the plate, 25 μL of the wells in drug dilution plate in Step a were transferred to corresponding wells in assay plate in Step d. The tips on the multichannel pipettor were changed for each row of compounds transferred.
Step f Using the manual multichannel pipettor, and being careful not to introduce bubbles into the plate, the contentes of the wells from the assay plate in Step e were mixed by aspirating and dispensing 35 μL of the 75 μL in each well five times. The tips on multichannel pipettor were changed for each row of wells mixed.
Step g. The plate was covered with a polystyrene plate lid, and the plate from Step f containing NS3 protease and sample compounds was pre-incubated 10 minutes at room temperature.
While plate from Step g is pre-incubating, the RETS1 substrate was diluted in a 15 mL polypropylene centrifuge tube. The RETS1 substrate was diluted to 8 μM (1:80.75 of 646 μM stock—65 μL 646 μM stock+5184 μL assay buffer).
After the plate in Step g was done pre-incubating, and using the manual multichannel, 25 μL of substrate were added to all wells on the plate. The contents of the wells of the plate were quickly mixed, as in Step f, mixing 65 μL of the 100 μL in the wells.
The plate was read in kinetic mode on the Molecular Devices SpectraMax Gemini XS plate reader. Reader settings: Read time: 30 minutes, Interval: 36 seconds, Reads: 51, Excitation λ: 335 nm, Emission λ: 495 nm, cutoff: 475 nm, Automix: off, Calibrate: once, PMT: high, Reads/well: 6, Vmax pts: 21 or 28/51 depending on length of linearity of reaction
IC50s are determined using a four parameter curve fit equation, and converted to Ki's using the following Km's: […]
Full-length E. coli NS3−2.03 μM
Full-length BV NS3−1.74 μM
where Ki=IC50/(1+[S]/Km))

T1 sequence (Q9WMX2 1027-1657): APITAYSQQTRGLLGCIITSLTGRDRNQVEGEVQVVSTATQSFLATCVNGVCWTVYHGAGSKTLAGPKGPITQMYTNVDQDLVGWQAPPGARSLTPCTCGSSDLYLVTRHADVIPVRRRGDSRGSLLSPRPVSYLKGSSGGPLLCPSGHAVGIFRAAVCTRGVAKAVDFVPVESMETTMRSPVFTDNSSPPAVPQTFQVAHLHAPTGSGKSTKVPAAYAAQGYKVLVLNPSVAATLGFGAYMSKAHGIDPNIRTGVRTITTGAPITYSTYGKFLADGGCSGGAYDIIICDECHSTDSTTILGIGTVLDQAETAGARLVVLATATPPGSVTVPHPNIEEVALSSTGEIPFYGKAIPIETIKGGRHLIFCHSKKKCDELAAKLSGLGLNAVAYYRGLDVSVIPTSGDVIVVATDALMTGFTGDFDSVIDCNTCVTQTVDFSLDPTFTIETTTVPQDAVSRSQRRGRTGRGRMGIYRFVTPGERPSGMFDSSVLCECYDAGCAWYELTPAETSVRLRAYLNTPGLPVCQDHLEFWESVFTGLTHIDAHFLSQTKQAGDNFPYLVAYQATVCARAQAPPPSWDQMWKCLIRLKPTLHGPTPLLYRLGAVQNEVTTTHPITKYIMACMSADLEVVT
T1 sequence (Q9WMX2 1658-1711): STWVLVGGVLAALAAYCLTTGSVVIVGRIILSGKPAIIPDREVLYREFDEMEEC

| SMILES | pEC50 [1] | pIC50 [2] |
| --- | --- | --- |
| C=C[C@@H]1C[C@]1(NC(=O)[C@@H]1C[C@@H](Oc2nccc3ccccc23)CN1C(=O)[C@@H](Nc1cc(F)cc(C(F)(F)F)c1)C(C)(C)C)C(=O)NS(=O)(=O)C1(C)CC1 [Compound 287] | > 7.00 | > 7.00 |
| CC[C@@H]1C[C@]1(NC(=O)[C@@H]1C[C@@H](OC(=O)N2Cc3cccc(F)c3C2)CN1C(=O)[C@@H](Nc1ccc(F)c(C#N)c1)C(C)(C)C)C(=O)NS(=O)(=O)C1CC1 [Compound 15] | 6.00 to 7.00 | > 7.00 |
| C=C[C@@H]1C[C@]1(NC(=O)[C@@H]1C[C@@H](Oc2cc(-c3nc(C(C)C)cs3)nc3c(C)c(OC)ccc23)CN1C(=O)[C@@H](Nc1cc(Cl)cc(C(F)(F)F)c1)C(C)(C)C)C(=O)NS(=O)(=O)C1(C)CC1 [Compound 403] | > 7.00 | > 7.00 |
| CC(C)(C)[C@H](Nc1cccc(C(F)(F)F)c1)C(=O)N1C[C@H](OC(=O)N2Cc3cccc(Cl)c3C2)C[C@H]1C(=O)N[C@]1(C(=O)NS(=O)(=O)C2CC2)C[C@H]1C1CC1 [Compound 293] | > 7.00 | > 7.00 |
| C=C[C@@H]1C[C@]1(NC(=O)[C@@H]1C[C@@H](Oc2cc(-c3nc(C(C)C)cs3)nc3c(C)c(OC)ccc23)CN1C(=O)[C@@H](Nc1cc(F)cc(OC(F)(F)F)c1)C(C)(C)C)C(=O)NS(=O)(=O)C1(C)CC1 [Compound 404] | > 7.00 | > 7.00 |
| CC[C@@H]1C[C@]1(NC(=O)[C@@H]1C[C@@H](Oc2cc(-c3nc(C(C)C)cs3)nc3c(C)c(OC)ccc23)CN1C(=O)[C@@H](Nc1ccc(F)c(C(F)(F)F)c1)C(C)(C)C)C(=O)NS(=O)(=O)C1(C)CC1 [Compound 301] | > 7.00 | > 7.00 |
| CC[C@@H]1C[C@]1(NC(=O)[C@@H]1C[C@@H](OC(=O)N2Cc3cccc(F)c3C2)CN1C(=O)[C@@H](Nc1cccc(OC(F)(F)F)c1)C(C)(C)C)C(=O)NS(=O)(=O)C1(C)CC1 [Compound 289] | > 7.00 | > 7.00 |
| CC[C@@H]1C[C@]1(NC(=O)[C@@H]1C[C@@H](OC(=O)N2Cc3cccc(F)c3C2)CN1C(=O)[C@@H](Nc1cccc(COCC2(C)COC2)c1)C(C)(C)C)C(=O)NS(=O)(=O)C1CC1 [Compound 14] | 6.00 to 7.00 | > 7.00 |
| C=C[C@@H]1C[C@]1(NC(=O)[C@@H]1C[C@@H](Oc2cc(-c3nc(C(C)C)cs3)nc3c(C)c(OC)ccc23)CN1C(=O)[C@@H](Nc1ccccc1)C(C)(C)C)C(=O)NS(=O)(=O)C1CC1 [Compound 353] | > 7.00 | > 7.00 |
| C=C[C@@H]1C[C@]1(NC(=O)[C@@H]1Cc2cc(Oc3cccc(Cl)c3)ccc2CN1C(=O)[C@@H](Nc1cccc(C(F)(F)F)c1)C(C)(C)C)C(=O)NS(=O)(=O)C1(C)CC1 [Compound 21] |  | > 7.00 |
| CC(C)(C)[C@H](Nc1ccc(F)c(C(F)(F)F)c1)C(=O)N1C[C@H](OC(=O)N2Cc3cccc(Cl)c3C2)C[C@H]1C(=O)N[C@]1(C(=O)NS(=O)(=O)C2CC2)C[C@H]1C1CC1 [Compound 294] | > 7.00 | > 7.00 |
| C=C[C@@H]1C[C@]1(NC(=O)[C@H]1Cc2cc(Oc3cccc(Cl)c3)ccc2CN1C(=O)[C@@H](Nc1ccc(F)cc1)C(C)(C)C)C(=O)NS(=O)(=O)C1(C)CC1 [Compound 26] |  | 6.00 to 7.00 |
| C=C[C@@H]1C[C@]1(NC(=O)[C@@H]1Cc2cc(Oc3cccc(Cl)c3)ccc2CN1C(=O)[C@@H](Nc1ccc(F)cc1)C(C)(C)C)C(=O)NS(=O)(=O)C1(C)CC1 [Compound 25] |  | > 7.00 |
| CC[C@@H]1C[C@]1(NC(=O)[C@@H]1C[C@@H](Oc2cc(-c3nc(C(C)C)cs3)nc3c(C)c(OC)ccc23)CN1C(=O)[C@@H](Nc1cc(F)cc(C(F)(F)F)c1)C(C)(C)C)C(=O)NS(=O)(=O)C1(C)CC1 [Compound 300] | > 7.00 |  |
| C=C[C@@H]1C[C@]1(NC(=O)[C@@H]1Cc2cc(Oc3cccc(Cl)c3)ccc2CN1C(=O)[C@@H](Nc1ccc(F)cc1)C(C)(C)C)C(=O)NS(=O)(=O)C1CC1 [Compound 28] |  | 6.00 to 7.00 |
| C=C[C@@H]1C[C@]1(NC(=O)[C@@H]1Cc2cc(Oc3cccc(Cl)c3)ccc2CN1C(=O)[C@@H](Nc1ccc(F)cc1)C(C)(C)C)C(=O)NS(=O)(=O)C1CC1 [Compound 27] |  | > 7.00 |
